Test: xn = mol fraction of the nth substance listed

CC(C)CC(=O)CC(C)C + CC(C)O
viscosity [mPa·s], 100 kPa
Conditions	x1 = 0.0818	x1 = 0.1619	x1 = 0.2451	x1 = 0.3518	x1 = 0.4413	x1 = 0.5637	x1 = 0.6549	x1 = 0.7367	x1 = 0.8528	x1 = 0.9379
293.15 K	1.93	1.52	1.19	0.92	0.76	0.65	0.63	0.66	0.77	0.87
298.15 K	1.73	1.41	1.14	0.88	0.72	0.62	0.61	0.64	0.74	0.83
303.15 K	1.51	1.26	1.05	0.83	0.7	0.6	0.59	0.62	0.72	0.8
308.15 K	1.32	1.12	0.95	0.77	0.66	0.58	0.57	0.6	0.68	0.76
313.15 K	1.18	1.01	0.87	0.72	0.63	0.56	0.55	0.57	0.64	0.71
318.15 K	1.05	0.92	0.8	0.67	0.6	0.54	0.53	0.55	0.61	0.67
323.15 K	0.93	0.82	0.72	0.63	0.57	0.52	0.51	0.53	0.58	0.63

CC(C)CC(C)(C)C + CC(C)O
viscosity [mPa·s], 101 kPa
Conditions	298.15 K	308.15 K
x1 = 0.0513	1.722	–
x1 = 0.0555	1.703	–
x1 = 0.1045	1.47	–
x1 = 0.1511	1.3	–
x1 = 0.2103	1.123	–
x1 = 0.2394	1.066	–
x1 = 0.2822	0.947	–
x1 = 0.4108	0.751	–
x1 = 0.4264	0.734	–
x1 = 0.5195	0.64	–
x1 = 0.5751	0.599	–
x1 = 0.6545	0.562	–
x1 = 0.6978	0.54	–
x1 = 0.8094	0.505	–
x1 = 0.9505	0.49	–
x2 = 0.05	0.482	0.432
x2 = 0.1	0.486	0.434
x2 = 0.1501	0.493	0.44
x2 = 0.2	0.503	0.447
x2 = 0.25	0.515	0.457
x2 = 0.3	0.53	0.468
x2 = 0.35	0.55	0.483
x2 = 0.4	0.576	0.501
x2 = 0.45	0.608	0.524
x2 = 0.5	0.646	0.552
x2 = 0.55	0.694	0.586
x2 = 0.6	0.751	0.628
x2 = 0.65	0.819	0.677
x2 = 0.7	0.901	0.736
x2 = 0.75	1.003	0.806
x2 = 0.8	1.122	0.898
x2 = 0.85	1.277	1.006
x2 = 0.9	1.407	1.145
x2 = 0.95	1.707	1.31

CCCCCC(=O)O + CC(C)[C@@H]1CC[C@@H](C)C[C@H]1O
Conditions	viscosity [mPa·s]
298 K, 101 kPa, x2 = 0.333	8.9

CC(=O)CC(C)C + CCC(C)(C)O
viscosity [mPa·s]
Conditions	298.15 K	303.15 K	308.15 K	313.15 K
101 kPa, x1 = 0.1	2.52	–	–	–
101 kPa, x1 = 0.2	1.823	–	–	–
101 kPa, x1 = 0.3	1.376	–	–	–
101 kPa, x1 = 0.4	1.1	–	–	–
101 kPa, x1 = 0.5	0.928	–	–	–
101 kPa, x1 = 0.6	0.815	–	–	–
101 kPa, x1 = 0.7	0.727	–	–	–
101 kPa, x1 = 0.8	0.65	–	–	–
101 kPa, x1 = 0.9	0.584	–	–	–
101.3 kPa, x1 = 0.1053	2.5	2.11	1.79	1.52
101.3 kPa, x1 = 0.1952	1.77	1.52	1.32	1.15
101.3 kPa, x1 = 0.305	1.37	1.21	1.07	0.951
101.3 kPa, x1 = 0.4324	1.05	0.946	0.856	0.776
101.3 kPa, x1 = 0.495	0.95	0.866	0.786	0.721
101.3 kPa, x1 = 0.6	0.813	0.747	0.69	0.64
101.3 kPa, x1 = 0.7004	0.719	0.671	0.627	0.587
101.3 kPa, x1 = 0.7937	0.641	0.603	0.569	0.538
101.3 kPa, x1 = 0.9001	0.589	0.558	0.529	0.503

O=C1CCCCC1 + CCC(C)=O
298.15 K, 101 kPa
Conditions	viscosity [mPa·s]
x1 = 0.0755	0.45
x1 = 0.1552	0.523
x1 = 0.2395	0.576
x1 = 0.3288	0.655
x1 = 0.4235	0.739
x1 = 0.5243	0.868
x1 = 0.6316	1.03
x1 = 0.7461	1.258
x1 = 0.8686	1.587

CC(C)CC(=O)CC(C)C + CCC(C)O
viscosity [mPa·s], 100 kPa
Conditions	x1 = 0.0815	x1 = 0.157	x1 = 0.2356	x1 = 0.3483	x1 = 0.4431	x1 = 0.5526	x1 = 0.6467	x1 = 0.7381	x1 = 0.8512	x1 = 0.9337
293.15 K	2.84	2.17	1.64	1.1	0.8	0.61	0.59	0.66	0.78	0.87
298.15 K	2.36	1.82	1.36	0.88	0.63	0.47	0.45	0.54	0.69	0.81
303.15 K	2	1.54	1.15	0.73	0.5	0.37	0.35	0.44	0.61	0.75
308.15 K	1.69	1.33	0.99	0.64	0.44	0.31	0.27	0.36	0.56	0.72
313.15 K	1.42	1.11	0.85	0.55	0.39	0.27	0.24	–	0.51	0.66
318.15 K	1.23	0.99	0.77	0.5	0.35	0.22	0.19	0.27	0.47	0.62
323.15 K	1.11	0.91	0.72	0.46	0.3	0.17	0.15	0.23	0.42	0.57

O=C1CCCCC1 + CCC(C)O
298.15 K, 101 kPa
Conditions	viscosity [mPa·s]
x1 = 0.1006	2.33
x1 = 0.209	1.9
x1 = 0.3005	1.66
x1 = 0.403	1.55
x1 = 0.4997	1.51
x1 = 0.6988	1.57
x1 = 0.8007	1.66
x1 = 0.8986	1.79

CC(=O)CC(C)C + CCCC(C)O
viscosity [mPa·s], 101.3 kPa
Conditions	x1 = 0.1036	x1 = 0.2131	x1 = 0.3003	x1 = 0.3959	x1 = 0.5098	x1 = 0.5963	x1 = 0.6924	x1 = 0.7942	x1 = 0.9001
298.15 K	2.26	1.61	1.32	1.12	0.924	0.821	0.712	0.646	0.589
303.15 K	1.93	1.41	1.16	1.01	0.848	0.76	0.664	0.607	0.557
308.15 K	1.65	1.25	1.05	0.91	0.78	0.705	0.62	0.571	0.527
313.15 K	1.41	1.1	0.965	0.837	0.718	0.658	0.601	0.553	0.502

CC(C)CC(=O)CC(C)C + CCCC(C)O
viscosity [mPa·s], 100 kPa
Conditions	x1 = 0.0794	x1 = 0.1627	x1 = 0.2381	x1 = 0.3487	x1 = 0.4381	x1 = 0.5619	x1 = 0.6565	x1 = 0.7364	x1 = 0.8517	x1 = 0.9341
293.15 K	3.12	2.32	1.78	1.18	0.84	0.58	0.51	0.55	0.71	0.85
298.15 K	2.63	1.94	1.43	0.89	0.62	0.43	0.4	0.47	0.66	0.81
303.15 K	2.24	1.68	1.21	0.76	0.52	0.34	0.32	0.41	0.6	0.76
308.15 K	1.89	1.41	1.05	0.66	0.44	0.27	0.24	0.33	0.52	0.7
313.15 K	1.55	1.17	0.87	0.55	0.37	0.22	0.19	0.28	0.46	0.64
318.15 K	1.28	0.98	0.75	0.49	0.32	0.18	0.16	0.24	0.42	0.59
323.15 K	1.09	0.84	0.65	0.42	0.26	0.14	–	0.2	0.38	0.53

From the CheMixHub viscosity set
